The structures appear in SMILES notation. Read-outs that look alike come from different tables or passages of the source. Bounds are passed on as bounds.

This test concerns the target T1, HCV NS3 helicase (Hepatitis C virus genotype 1b, UniProt P26663).
T1 construct: full-length NS3 (1-631), purified at Array BioPharma
Nature of the test: HCV Helicase Prompt FRET Assay (Example A). The class given is biochemical. Put shortly: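 Initial unwinding rates, monitored as FAM fluorescence gain (ex 485, em 535) over ~30 min at room temperature, gave IC50 via 4- or 5-parameter logistic fits. Reactions: 50 nM quenched duplex, 250 nM capture strand, 300 μM ATP, 5–6 nM NS3 1-631 after 5 min compound preincubation, MOPS pH 7.0 buffer, 2% DMSO.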

The mark [1] stands for this setting: HCV NS3 helicase, tables do not say whether Example A or Example B assay, read-out: IC50 Activity.
Where [2] appears, read: Table 36, compounds made using Scheme 54, read-out: IC50 Activity.
[3] abbreviates: Table 21, compounds made using Scheme 28, read-out: IC50 Activity.
[4] abbreviates: Table 38, compounds made using Scheme 56, Scheme 57 and Scheme 61, read-out: IC50 Activity.
[5] abbreviates: Table 35, compounds made using Scheme 53, read-out: IC50 Activity.
[6] abbreviates: Table 34, compounds made using Schemes 51-52, read-out: IC50 Activity.
The mark [7] stands for this setting: Table 32, compounds made using Schemes 46-49, read-out: IC50 Activity.

T1 sequence (P26663 1027-1657): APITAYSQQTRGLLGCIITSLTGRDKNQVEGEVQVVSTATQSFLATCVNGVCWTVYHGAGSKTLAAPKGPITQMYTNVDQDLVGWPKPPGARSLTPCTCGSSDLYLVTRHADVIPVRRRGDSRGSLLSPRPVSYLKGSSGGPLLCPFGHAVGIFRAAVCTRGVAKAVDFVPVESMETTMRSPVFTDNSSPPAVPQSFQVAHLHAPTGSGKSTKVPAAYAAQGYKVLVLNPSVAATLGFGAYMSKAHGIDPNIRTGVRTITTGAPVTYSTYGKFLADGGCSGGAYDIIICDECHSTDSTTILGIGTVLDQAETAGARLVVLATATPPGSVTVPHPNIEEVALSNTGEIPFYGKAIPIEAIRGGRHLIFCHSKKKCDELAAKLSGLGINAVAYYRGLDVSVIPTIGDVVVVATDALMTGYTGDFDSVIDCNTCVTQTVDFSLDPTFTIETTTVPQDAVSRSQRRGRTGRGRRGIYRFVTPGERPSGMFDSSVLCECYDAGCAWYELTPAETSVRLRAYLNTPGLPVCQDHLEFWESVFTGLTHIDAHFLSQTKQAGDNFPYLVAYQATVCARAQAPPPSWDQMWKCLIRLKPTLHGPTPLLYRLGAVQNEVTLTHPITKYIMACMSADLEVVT

Take `C#Cc1cn(-c2ccc([N+](=O)[O-])cc2C)c2ncc(Br)cc12` [Example 321]: the half-maximal inhibitory concentration (IC50) under setting [1] is > 50 µM.

Regarding `O=C(O)Cc1cn(-c2ccc(N(CCO)Cc3ccccc3)cc2)c2ccccc12` [Example 168], the half-maximal inhibitory concentration (IC50) under setting [1] was 10 to 50 µM.

In the case of `CSc1ccccc1-c1ccc(C(=O)c2[nH]c3ccccc3c2CC(=O)O)cc1` [Example 271], the IC50 under setting [1] lay in the range of 10 to 50 µM.

Consider `O=C(O)Cc1c(Cc2ccc(-c3ccccc3)cc2)oc2ccccc12` [Example 305], for which the 50% inhibitory concentration (IC50) under setting [1] is 10 to 50 µM.

For the compound `CCOC(=O)Cc1cn(Cc2csc3ccc(OC(F)(F)F)cc23)c2cc(-c3cc([N+](=O)[O-])cc([N+](=O)[O-])c3)ccc12` [Example 717], the IC50 under setting [2] was in the range of 10 to 50 µM.

As for `O=C(O)Cc1cn(Cc2csc3c(Cl)cccc23)c2cc(Br)ccc12` [Example 782], the 50% inhibitory concentration (IC50) under setting [2] is > 50 µM.

In the case of `Cc1cccc(CN(C)c2ccc(-n3cc(CC(=O)O)c4ccccc43)cc2)c1` [Example 176], under setting [1], the 50% inhibitory concentration (IC50) was < 10 µM.

On to `Nc1cc(-c2ccc3c(CC(=O)O)cn(Cc4csc5ccc(Cl)cc45)c3c2)cc(N)n1` [Example 638], for which the IC50 (Table 31, compounds made using Schemes 38-45, read-out: IC50 Activity) was in the range of 10 to 50 µM.

Consider `O=C(O)Cc1c(Cc2ccc(-c3ccccc3Br)cc2)[nH]c2ccccc12` [Example 287], for which, under setting [1], the concentration for half-maximal inhibition (IC50) was < 10 µM.

`CN(c1ccc(Cn2cc(CC(=O)O)c3ccccc32)cc1)c1cccc(Cl)c1Cl` [Example 572]: the IC50 under setting [3] was < 10 µM.

With `CCOC(=O)Cc1cn(Cc2ccc(N(C)c3ccccc3F)cc2)c2ccccc12` [Example 583], the half-inhibitory concentration (IC50) under setting [3] was 10 to 50 µM.

On to `O=C(O)Cc1cn(Cc2csc3ccc(Cl)cc23)c2cc(-c3ccnc(NCCO)c3)ccc12` [Example 741], for which the IC50 under setting [1] was < 10 µM.

Turning to `O=C(O)Cc1c(C(=O)c2cccc(-c3cccc(C(F)(F)F)c3)c2)[nH]c2ccccc12` [Example 225], the IC50 under setting [1] is 10 to 50 µM.

In the case of `CC(C)(C)OC(=O)N(c1cc(Cl)cc2c(Cn3cc(CC(=O)O)c4ccc(Br)cc43)csc12)C1CC1` [Example 773], the IC50 under setting [4] was > 50 µM.

For `COC(=O)Cc1cn(-c2ccc([N+](=O)[O-])cc2C)c2ccc(Br)cc12` [Example 378], the half-maximal inhibitory concentration (IC50) under setting [1] is > 50 µM.

In the case of `CC(C)c1ccc(Cn2c(C(=O)NCc3ccc(Cl)cc3)c(CC(=O)O)c3ccccc32)cc1` [Example 450], the half-maximal inhibitory concentration (IC50) under setting [1] was < 10 µM.

For `Cc1cc(-c2ccc(C(=O)c3[nH]c4ccccc4c3CC(=O)O)cc2)ccc1Cl` [Example 261], under setting [1], the IC50 is < 10 µM.

`CCOC(=O)C(=O)c1cn(-c2ccc([N+](=O)[O-])cc2C)c2ccc(Br)cc12` [Example 379]: the IC50 under setting [1] fell in the range of 10 to 50 µM.

On to `Cc1cc([N+](=O)[O-])ccc1-n1c2ccc(Br)cc2c2c(C(=O)O)cccc21` [Example 471], for which, under setting [1], the IC50 was in the range of 10 to 50 µM.

For `O=C(O)C(Cc1ccccc1)c1c(-c2ccccc2)n(Cc2csc3ccc(Cl)cc23)c2ccccc12` (stereo not drawn) [Example 415], the 50% inhibitory concentration (IC50) under setting [1] was < 10 µM.

As for `Nc1ncc(C(=O)O)c(-c2ccc3c(CC(=O)O)cn(Cc4csc5ccc(Cl)cc45)c3c2)n1` [Example 621], the IC50 (Table 29, compounds made using Scheme 36, read-out: IC50 Activity) was > 50 µM.

For `O=C(Cc1cn(Cc2cccc(OCc3ccccc3)c2)c2ccc(OCc3ccccc3)cc12)N1CCCCC1` [Example 188], under setting [1], the IC50 is 10 to 50 µM.

Regarding `COc1ccc(Oc2ccc(Cn3cc(CC(=O)O)c4ccccc43)cc2)cc1OC` [Example 511], under setting [1], the concentration for half-maximal inhibition (IC50) was < 10 µM.

As for `Cc1cc([N+](=O)[O-])ccc1-n1cc(/C=C/C(=O)O)c2cc(Br)cnc21` [Example 330], the 50% inhibitory concentration (IC50) under setting [1] is > 50 µM.

As for `COc1cccc(N(C)c2ccc(Cn3cc(CC(=O)O)c4ccccc43)cc2)c1` [Example 563], the half-inhibitory concentration (IC50) under setting [3] is < 10 µM.

Take `O=C(O)Cc1cn(Cc2csc3ccc(Cl)cc23)c2cc(-c3cccnc3)ccc12` [Example 743]: under setting [1], the 50% inhibitory concentration (IC50) was in the range of 10 to 50 µM.

`O=C(O)Cc1c(C(=O)c2cccc(-c3cccc(Cl)c3Cl)c2)[nH]c2ccccc12` [Example 230]: under setting [1], the IC50 was < 10 µM.

Regarding `Cc1nn(-c2ccccc2)nc1Cn1cc(CC(=O)O)c2ccc(-c3cc(N)cc(N)c3)cc21` [Example 706], the concentration for half-maximal inhibition (IC50) under setting [5] was 10 to 50 µM.

Turning to `CCOC(=O)C(O)(c1cn(-c2ccc([N+](=O)[O-])cc2C)c2ccc(Br)cc12)C(F)(F)F` (stereo not drawn) [Example 389], the concentration for half-maximal inhibition (IC50) (IC50 Activity, HCV NS3 helicase, tables do not say whether Example A or Example B assay) is > 50 µM.

Turning to `Cc1cc([N+](=O)[O-])ccc1-n1cc(C=O)c2cc(OCc3ccccc3)ncc21` [Example 327], under setting [1], the IC50 is > 50 µM.

Consider `CN(c1ccc(F)cc1)c1cccc(Cn2cc(CC(=O)O)c3ccccc32)c1` [Example 522], for which, under setting [1], the IC50 is < 10 µM.

With `O=C(O)Cc1cn(Cc2cccc(Oc3cc(F)cc(F)c3)c2)c2ccccc12` [Example 485], the IC50 under setting [1] is 10 to 50 µM.

Turning to `CC(=O)c1c(CC(=O)O)c2ccccc2n1-c1ccc(N(C)Cc2ccccc2)cc1` [Example 737], under setting [1], the IC50 fell in the range of 10 to 50 µM.

With `CCN(C)c1cc(Cl)cc2c(Cn3cc(CC(=O)O)c4ccc(-c5cc(N)cc(N)c5)cc43)csc12` [Example 732], the IC50 under setting [4] is < 10 µM.

In the case of `COc1cccc(Oc2cccc(Cn3cc(CC(=O)O)c4ccccc43)c2)c1OC` [Example 488], under setting [1], the half-maximal inhibitory concentration (IC50) is < 10 µM.

Consider `Nc1cc(-c2ccc3c(CC(=O)O)cn(Cc4csc5ccc(Cl)cc45)c3c2)ccn1` [Example 747], for which, under setting [1], the IC50 lay in the range of 10 to 50 µM.

As for `O=C(Cn1cc(Cc2nnn[nH]2)c2ccccc21)N1CCC(Cc2ccccc2)CC1` [Example 206], under setting [1], the concentration for half-maximal inhibition (IC50) was 10 to 50 µM.

For `NC(=O)Cc1c(-c2ccccc2)n(Cc2csc3ccc(Cl)cc23)c2ccccc12` [Example 200], under setting [1], the IC50 lay in the range of 10 to 50 µM.

For `Oc1nnc(Cc2cn(Cc3csc4ccc(Cl)cc34)c3ccccc23)[nH]1` [Example 212], the half-maximal inhibitory concentration (IC50) under setting [1] lay within 10 to 50 µM.

Turning to `CN(c1ccc(Cn2cc(CC(=O)O)c3ccccc32)cc1)c1ccccc1C(F)(F)F` [Example 565], under setting [3], the IC50 is < 10 µM.

Turning to `Cc1cc([N+](=O)[O-])ccc1-n1cc(C(NC(=O)C2CCNCC2)C(=O)O)c2ccccc21` (stereo not drawn) [Example 674], the IC50 under setting [6] was > 50 µM.

With `O=C(O)Cc1cn(Cc2csc3cc(Cl)cc(Cl)c23)c2cc(Br)ccc12` [Example 786], the IC50 under setting [2] was > 50 µM.

With `O=C(O)Cc1c(C(=O)c2ccc(-c3ccccc3)cc2)oc2ccccc12` [Example 223], under setting [1], the IC50 is 10 to 50 µM.

With `O=C(Cc1cn(Cc2cccc(OCc3ccccc3)c2)c2ccc(OCc3ccccc3)cc12)NS(=O)(=O)c1ccccc1` [Example 195], the half-maximal inhibitory concentration (IC50) under setting [1] is < 10 µM.

Regarding `CCOC(=O)Cc1cn(Cc2cccc3sc(Cl)nc23)c2cc(-c3cc(N)cc(N)c3)ccc12` [Example 794], the IC50 under setting [5] lay in the range of 10 to 50 µM.

`CN(c1cccc(Cn2cc(CC(=O)O)c3ccccc32)c1)c1c(F)cccc1F` [Example 536]: the IC50 under setting [1] fell in the range of 10 to 50 µM.

Take `Cc1cc(NC(=O)Cc2ccccc2)ccc1-n1cc(CC(=O)O)c2ccccc21` [Example 156]: under setting [1], the IC50 was 10 to 50 µM.

On to `O=C(O)Cc1cn(-c2ccc(-c3ccccc3Cl)cc2)c2ccccc12` [Example 153], for which the IC50 under setting [1] was < 10 µM.

On to `CN(Cc1cccc(F)c1)c1ccc(-n2cc(CC(=O)O)c3ccccc32)cc1` [Example 178], for which the half-maximal inhibitory concentration (IC50) under setting [1] is < 10 µM.

As for `CN(c1cccc(Cn2cc(CC(=O)O)c3ccccc32)c1)c1ccc(Cl)cc1Cl` [Example 538], the IC50 under setting [1] was < 10 µM.

Consider `Nc1cc(N)cc(-c2ccc3c(CC(=O)O)cn(Cc4csc5ccc(F)cc45)c3c2)c1` [Example 705], for which the IC50 under setting [5] is < 10 µM.

Take `CCOC(=O)Cc1cn(Cc2cccc(N(C)c3ccccc3Cl)c2)c2cc(-c3cccc(O)c3)ccc12` [Compound 624]: the IC50 (Table 30, compounds made using Scheme 37, read-out: IC50 Activity) is 10 to 50 µM.

For the compound `CCN(c1cccc(Cn2cc(CC(=O)O)c3ccccc32)c1)c1ccccc1Cl` [Example 552], the IC50 under setting [1] was < 10 µM.

Turning to `Cc1cc(-c2ccc(Cc3[nH]c4ccccc4c3CC(=O)O)cc2)ccc1Cl` [Example 281], the IC50 under setting [1] is < 10 µM.

On to `Cc1cc(NC(=O)c2cccs2)ccc1-n1cc(CC(=O)O)c2ccccc21` [Example 158], for which the IC50 under setting [1] fell in the range of 10 to 50 µM.

With `NC(=O)c1nc(N)sc1-c1ccc2c(CC(=O)O)cn(Cc3csc4ccc(Cl)cc34)c2c1` [Example 655], the IC50 under setting [7] fell in the range of 10 to 50 µM.

`O=C(O)Cc1cn(Cc2csc3ccc(Cl)cc23)c2cc(-c3ccccc3F)ccc12` [Example 758]: the 50% inhibitory concentration (IC50) (Table 37, compounds made using Scheme 55, read-out: IC50 Activity) was > 50 µM.

As to `NC(=O)c1nc(N)sc1-c1ccc2c(CC(=O)O)cn(Cc3csc4ccc(Cl)cc34)c2c1` [Example 654], the half-inhibitory concentration (IC50) under setting [7] is < 10 µM.

Regarding `O=C(O)Cc1cn(Cc2ccc(Oc3c(F)cccc3F)cc2)c2ccccc12` [Example 587], under setting [1], the concentration for half-maximal inhibition (IC50) is < 10 µM.

On to `CSc1ccccc1-c1ccc(Cc2[nH]c3ccccc3c2CC(=O)O)cc1` [Example 288], for which, under setting [1], the IC50 is < 10 µM.

As to `CC(C)c1ccc(Cn2c(C(=O)NCc3ccc(S(C)(=O)=O)cc3)c(CC(=O)O)c3cc(Br)ccc32)cc1` [Example 443], the half-maximal inhibitory concentration (IC50) under setting [1] is < 10 µM.

With `O=C(O)Cc1cn(Cc2ccc(Cl)s2)c2ccc(Br)cc12` [Example 137], the IC50 under setting [1] fell in the range of 10 to 50 µM.

With `O=C(O)Cc1cn(Cc2csc3cccc(Cl)c23)c2cc(Br)ccc12` [Example 784], the concentration for half-maximal inhibition (IC50) under setting [2] was > 50 µM.

Consider `Cc1c(Cl)cccc1-c1ccc(-n2cc(CC(=O)O)c3ccccc32)cc1` [Example 150], for which the IC50 under setting [1] was < 10 µM.

For the compound `CC(C)c1ccc(Cn2c(C#N)c(CC(=O)O)c3ccccc32)cc1` [Example 664], the half-inhibitory concentration (IC50) under setting [7] is 10 to 50 µM.

In the case of `Cc1cc([N+](=O)[O-])ccc1-n1cc(C(NC(=O)C2CCCN2C(=O)OC(C)(C)C)C(=O)O)c2ccccc21` (stereo not drawn) [Example 671], under setting [6], the IC50 was 10 to 50 µM.

Source of the values: patent publication US20090047246A1, “NOVEL INHIBITORS OF HEPATITIS C VIRUS REPLICATION” (InterMune, Inc., priority 2007, published 2009).
